Test results from patent US20110319287A1, “MODULATOR ASSAY” (ADDEX PHARMA S.A., priority 2009, published 2011).
One block for each compound: values may come before it. Peptide text beside a SMILES is read from it. * marks the point of attachment. Cbz = O=C(OCc1ccccc1)*; CH2F = FC*

How the values were obtained:
[1] = tested on: TNF-induced relocalisation of EYFP-TRADD (TNFR1-containing complex I) in HeLa cells; assay: TNF-mediated relocation of fluorescently tagged TRADD in Clone #49-E2 HeLa cells, 384-well (Example 2); assay type: cell-based, human; settings: for effect of downstream signalling inhibitors on detectable EYFP-TRADD clusters: increasing concentrations, in the presence of TNF, FIGS. 14-16; for selectivity: relocalisation of the reporter molecule EYFP-TRADD effected by other compounds or molecules: added instead of TNF, FIG. 12
Description: The following experimental procedure to detect the reporter molecule in the presence of absence of a “test” compound (or molecule, as described below) was conducted.
On day 1, 10^3 cells per well were plated in thin glass bottom 384 wells plate in 50 μl of culture media (DMEM glutamax, 10% FBS, peni-strep, geneticin, hygromycin). The cells were incubated overnight at 37° C. On day 2, media was aspirated, and 35 μl of warm DMEM, 2, 5% FBS, HEPES 10 mM added. Then, 15 μl of 4× the test compound diluted in DMEM, 2, 5% FBS, HEPES 10 mM was added to cells using a Biomek laboratory automation workstation (Beckman-Coulter). This was incubated at room temperature for 1.5 min. […] The cells were washed three times with PBS 1× using an Embla 384 Cell Washer (Molecular Devices). Cells were fixed by adding PBS 1×, 5% PFA+Hoescht 0.2 μg/ml using a Multidrop 384 dispensor (Thermo Scientific; 30 μl/well) followed by an incubation for 20 min at room temperature in the dark. After a further three washes of the cells with PBS 1× using the Embla 384 Cell Washer, 60 μl per well of PBS 1×, 1% peni-strep was added. The plate was covered with a transparent sealing film. Readings were then taken on the Scientific Cellomics ArrayScan HCS Reader automated microscope system as used in Example 1.

[2] = tested on: TNF-mediated relocation of TRADD-EYFP in HeLa cells; assay: TNF-mediated relocation of TRADD-EYFP / EYFP-TRADD in stably transfected HeLa cells (Example 1, clone HeLa/TRADD-EYFP#49); assay type: cell-based, human; settings: for blocking of TNF-induced relocalisation of fluorescently tagged TRADD to punctuate structures: in the presence of TNF, R-7050 100 μM with 1000 ng/ml TNF (FIG. 6), etanercept FIG. 9
Description: The pTREhyg-EYFP-TRADD and pTREhyg-TRADD-EYFP expression vectors were stably transfected using PolyFect® Transfection Reagent (Qiagen), according to the manufacturer's protocol, into HeLa Tet-On Cell Line cells (Clontech Laboratories, Inc.). This cell line is a neomycin resistant human cervical epithelioid carcinoma cell line transformed with a modified version of pTet-On which has a nuclear localization signal fused to the N-terminus (pUHD172-1neo).
Intracellular location of EYFP-TRADD and TRADD-EYFP was determined using fluorescence microscopy. Using a fluorescence microscope, cells are illuminated with light of a specific wavelength which is absorbed by the EYFP, causing it to emit longer wavelengths of light (of a different colour than the absorbed light). The illumination light is separated from the much weaker emitted fluorescence through the use of an emission filter, and an image of the cell created.
We then used an automated microscope system (a Thermo Scientific Cellomics ArrayScan HCS Reader) as an automated fluorescence microscopic imaging system designed for high content screening and high content analysis. The instrument features include optics by Carl Zeiss, broad white-light source, 12-bit cooled CCD camera, and controller software. The instrument is designed to work with image analysis modules (Thermo Scientific BioApplications) that automatically convert images into numeric data that capture changes in cell size, shape, intensity, and other properties. The system allows: high content screening, analysis of cells containing fluorescent reporter molecules in an array of locations, treating the cells in the array of locations with one or more test compounds, imaging numerous cells in each location with fluorescence optics, and converting the optical information into digital data. This digital data was then used to determine the positioning, distribution, environment or activity of the fluorescently labelled reporter molecules (EYFP-TRADD or TRADD-EYFP) in the transfected HeLa cells and the distribution of the cells. This information was analysed in terms of a positive, negative or null effect of each test compound being examined. This system allowed differences between untreated and treated cells to be measured, for example by counting the number of fluorescent spots (rather than diffuse fluorescence) in cells.
Using GraphPad Prism (v. 4.01, San Diego, Calif., USA), a dose-response curve was generated (FIG. 7). Percentage responders (y-axis values in FIGS. 7 and 8) were determined as the number of cells with more than five spots, which is an alternative but qualitatively similar measurement to spot count per cell (see below).

[3] = target: T1, TL1A-activated DR3 receptor (Homo sapiens, UniProt Q93038, P167L); assay: TL1A-induced TRADD-EYFP relocation in HeLa TRADD DR3 recombinant cells (Example 3); assay type: cell-based; settings: FIG. 17
T1 construct: (N); expressed in transfected cells; host or cells: HeLa Tet-On cells stably expressing TRADD-EYFP, transfected with pTRE2-DR3 (HeLa TRADD DR3)
T1 sequence (Q93038 with tags, fused parts or gaps P167L): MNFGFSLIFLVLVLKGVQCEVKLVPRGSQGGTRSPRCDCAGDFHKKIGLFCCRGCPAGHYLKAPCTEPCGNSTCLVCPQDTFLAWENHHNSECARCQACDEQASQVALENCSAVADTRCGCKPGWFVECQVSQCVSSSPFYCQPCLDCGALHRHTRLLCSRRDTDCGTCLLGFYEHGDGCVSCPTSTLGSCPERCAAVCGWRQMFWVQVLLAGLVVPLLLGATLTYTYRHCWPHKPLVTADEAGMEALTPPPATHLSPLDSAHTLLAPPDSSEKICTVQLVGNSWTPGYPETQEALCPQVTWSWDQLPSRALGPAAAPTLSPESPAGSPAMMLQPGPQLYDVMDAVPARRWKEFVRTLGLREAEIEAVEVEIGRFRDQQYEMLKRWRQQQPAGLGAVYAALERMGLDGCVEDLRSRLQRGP
Text: (§1) In a further example of the present invention, a method involving the TL1A-activated DR3 receptor was developed. The TRADD-EYFP HeLa clones comprising the TRADD-EYFP reporter molecule transfected into HeLa cells as described in Example 1 was employed. The DR3 receptor (cDNA sequence shown in SEQ ID NO: 19 and encoded protein shown in SEQ ID NO: 20) which had been cloned in the vector pCR3.1 (Invitrogen) was transferred into the vector pTre2 (Clontech) using the Gateway® cloning technique with the primers Attb1 Forward primer (SEQ ID NO: 21) and Attb2 Reverse primer (SEQ ID NO: 22), yielding a pTRE2-DR3 expression vector (SEQ ID NO: 23). This expression vector was then transfected into the TRADD-EYFP HeLa clones to produce a double transformants designated HeLa TRADD DR3.
(§2) Monitoring and quantification of the TRADD-EYFP reporter molecule was conducted as described in Examples 1 and 2 above. […] The data of FIG. 17 are depicted graphically in FIG. 18.

[4] = tested on: TNF-induced TRADD relocalisation in HeLa TRADD DR3 cells; assay: TNF-induced TRADD-EYFP relocation in HeLa TRADD DR3 recombinant cells (Example 3); assay type: cell-based, human; settings: in the presence of 100 ng/ml TNF; FIG. 19
Text: as §1, §2

Compound: O=C(c1ccc(Nc2nccc(-c3cc4ccccc4s3)n2)cc1)N1CCC(N2CCCC2)CC1 [IKK16]
effect of downstream signalling inhibitors on detectable EYFP-TRADD clusters [1]: no change in detectable EYFP-TRADD clusters

IC50 ([2]; on 1000 ng/ml TNF, FIG. 8): 2100 nM
Compound: FC(F)(F)c1nnc2c(Sc3ccccc3)nc3ccc(Cl)cc3n12 [R-7050]
blocking of TNF-induced relocalisation of fluorescently tagged TRADD to punctuate structures [2]: blocked

Compound: CC[C@H](C)[C@H](NC(=O)OCc1ccccc1)C(=O)N[C@@H](CCC(=O)OC)C(=O)N[C@H](C(=O)N[C@@H](CC(=O)OC)C(=O)CF)[C@@H](C)O [Z-IETD-FMK] (Cbz-IE(OMe)TD(OMe)-CH2F)
effect of downstream signalling inhibitors on detectable EYFP-TRADD clusters [1]: no dissociation of clusters

Compound: C=C1[C@@H](C)[C@H]2[C@H](Cc3ccccc3)NC(=O)[C@]23[C@H](OC(C)=O)/C=C/[C@@](C)(O)C(=O)[C@@H](C)C/C=C/[C@H]3[C@@H]1O [cytochalasin D]
effect of downstream signalling inhibitors on detectable EYFP-TRADD clusters [1]: a reduction in detectable EYFP-TRADD clusters

Compound: IL1β: Recombinant Human IL1β from Peprotech, Cat N° 200-01B
selectivity: relocalisation of the reporter molecule EYFP-TRADD effected by other compounds or molecules [1]: not effected

Compound: Polyinosinic-polycytidylic acid potassium salt [Poly I:C]
selectivity: relocalisation of the reporter molecule EYFP-TRADD effected by other compounds or molecules [1]: not effected

calculated EC50 of TL1A (TRADD-EYFP relocalisation to spots) ([3]; HeLa TRADD DR3 cells): 0.0043 µg/mL
Compound: TL1A: Recombinant Human TL1A/TNFSF15 from R&D Systems, Cat N° 1319-TL
selectivity: relocalisation of the reporter molecule EYFP-TRADD effected by other compounds or molecules [1]: not effected

Compound: TRAIL: recombinant human TRAIL from Millipore, Cat N° GF092
selectivity: relocalisation of the reporter molecule EYFP-TRADD effected by other compounds or molecules [1]: not effected

IC50 ([2]; TNF dose=300 ng/ml, FIG. 9): 2740 nM | IC50 on TNF-induced relocalisation [4]: 0.0538 µg/mL | dose-dependent inhibition of TL1A-induced relocalisation ([3]; in the presence of 300 ng/ml TL1A): not
Compound: etanercept
blocking of TNF-induced relocalisation of fluorescently tagged TRADD to punctuate structures [2]: block | dose-dependent inhibition of TNF-induced relocalisation [4]: dose-dependently inhibited | blocking of TNF-induced relocalisation of EYFP-TRADD ([1]; FIG. 13): blocks
